Measured values from ChEMBL document CHEMBL1144200, “Discovery and biological evaluation of benzo[a]carbazole-based small molecule agonists of the thrombopoietin (Tpo) receptor” (Bioorg Med Chem Lett, 2008).

What was measured:
[1] = target: T1, Thrombopoietin receptor (Homo sapiens) (UniProt P40238); experiment: Agonist activity at human thrombopoietin receptor in Ba/F3 cells assessed as activation of Stat5 response element-driven reporter gene expression relative to 30 ng/mL thrombopoietin; format: functional, cell-based; conditions: BaF3
T1 sequence (whole entry): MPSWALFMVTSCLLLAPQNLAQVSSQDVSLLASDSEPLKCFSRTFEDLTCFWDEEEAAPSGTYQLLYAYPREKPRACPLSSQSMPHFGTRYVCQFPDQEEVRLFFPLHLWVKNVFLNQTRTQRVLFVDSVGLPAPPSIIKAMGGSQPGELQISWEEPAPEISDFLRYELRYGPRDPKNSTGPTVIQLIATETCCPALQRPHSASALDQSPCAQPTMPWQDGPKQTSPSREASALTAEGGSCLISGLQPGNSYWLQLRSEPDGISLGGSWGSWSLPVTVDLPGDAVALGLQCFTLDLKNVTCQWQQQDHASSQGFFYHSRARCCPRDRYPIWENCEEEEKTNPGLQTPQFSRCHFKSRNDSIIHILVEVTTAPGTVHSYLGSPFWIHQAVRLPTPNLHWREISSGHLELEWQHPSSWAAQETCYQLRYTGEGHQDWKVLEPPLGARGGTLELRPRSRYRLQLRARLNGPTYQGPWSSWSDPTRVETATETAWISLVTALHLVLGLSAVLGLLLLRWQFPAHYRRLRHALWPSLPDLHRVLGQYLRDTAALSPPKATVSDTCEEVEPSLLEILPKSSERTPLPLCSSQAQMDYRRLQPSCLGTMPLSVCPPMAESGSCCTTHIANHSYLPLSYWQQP

Thrombopoietin receptor = target: T2, Thrombopoietin receptor (Homo sapiens, UniProt P40238); experiment: Agonist activity at human thrombopoietin receptor in Ba/F3 cells assessed as activation of Stat5 response element-driven reporter gene expression; format: functional, cell-based, BaF3
T2 sequence (P40238 whole entry): T1 sequence (whole entry)

[2] = Bioavailability in BALB/c mouse at 20 mg/kg, po; format: ADME, organism-based; conditions: in vivo
[3] = Half life in BALB/c mouse at 20 mg/kg, po; format: ADME, organism-based; design: dose 20 mg/kg, route oral; conditions: in vivo
[4] = Cmax in BALB/c mouse at 20 mg/kg, po; format: ADME, organism-based; design: dose 20 mg/kg, route oral; conditions: in vivo

| Efficacy [1] | EC50 (Thrombopoietin receptor) | bioavailability [2] | half-life [3] | Cmax [4] | SMILES |
| --- | --- | --- | --- | --- | --- |
| 76% | 870 nM |  |  |  | Cc1ccc2c(c1)[nH]c1c3cc(O)c(C(=O)O)cc3ccc21 |
| 128% | 67 nM | 10% | 4.1 h | 2000 nM | Cc1cc(C)cc(-c2ccc3c4c([nH]c3c2)-c2cc(O)c(C(=O)O)cc2CC4)c1 |
| 11% | 1300 nM |  |  |  | COC(=O)c1cc2ccc3c4ccccc4[nH]c3c2cc1O |
| 74% | 7790 nM |  |  |  | O=C(O)c1ccc2c3c([nH]c2c1)-c1cc(O)c(C(=O)O)cc1CC3 |
| 143% | 26 nM |  |  |  | CCCCc1ccc(-c2ccc3c4c([nH]c3c2)-c2cc(O)c(C(=O)O)cc2CC4)cc1 |
| 30% | 232 nM |  |  |  | Cc1cccc(C)c1-c1ccc2c3c([nH]c2c1)-c1cc(O)c(C(=O)O)cc1CC3 |
| 132% | 452 nM |  |  |  | COCc1ccc(-c2ccc3c4c([nH]c3c2)-c2cc(O)c(C(=O)O)cc2CC4)cc1 |
| 136% | 284 nM |  |  |  | CN(C)c1ccc(-c2ccc3c4c([nH]c3c2)-c2cc(O)c(C(=O)O)cc2CC4)cc1 |
| 140% | 55 nM |  |  |  | CCCCc1ccc(-c2ccc3c4c([nH]c3c2F)-c2ccc(C(=O)O)cc2CC4)cc1 |
|  | > 30000 nM |  |  |  | O=C(O)c1cc2c(cc1O)-c1[nH]c3cccc(-c4ccccc4)c3c1CC2 |
| 128% | 143 nM |  |  |  | O=C(O)c1cc2ccc3c4ccc(C(F)(F)F)cc4[nH]c3c2cc1O |
| 37% | 7830 nM |  |  |  | O=C(O)c1cc2c(cc1O)-c1[nH]c3c(C(F)(F)F)cccc3c1CC2 |
| 128% | 194 nM |  |  |  | Cc1cccc(-c2ccc3c4c([nH]c3c2)-c2cc(O)c(C(=O)O)cc2CC4)c1 |
| 127% | 65 nM |  |  |  | Cc1ccc(-c2ccc3c4c([nH]c3c2)-c2cc(O)c(C(=O)O)cc2CC4)cc1C |
| 127% | 148 nM |  |  |  | O=C(O)c1cc2c(cc1O)-c1[nH]c3cc(-c4cccc(C(F)(F)F)c4)ccc3c1CC2 |
|  | > 30000 nM |  |  |  | COc1cc2c(ccc3c4ccccc4[nH]c23)cc1C(=O)O |
|  | > 30000 nM |  |  |  | Cc1cc(-c2ccc3c4c([nH]c3c2F)-c2ccc(C3=NCCN3)cc2CC4)ccc1F |
| 128% | 119 nM |  |  |  | CCCCc1ccc(-c2ccc3c4c([nH]c3c2)-c2ccc(-c3nnn[nH]3)cc2CC4)cc1 |

| Efficacy [1] | EC50 (Thrombopoietin receptor) | bioavailability [2] | half-life [3] | Cmax [4] | SMILES |
| --- | --- | --- | --- | --- | --- |
|  | > 30000 nM |  |  |  | OCc1cc2ccc3c4ccccc4[nH]c3c2cc1O |
| 132% | 127 nM |  |  |  | CCCCc1ccc(-c2ccc3c4c([nH]c3c2)-c2ccc(C(=O)N(C)C)cc2CC4)cc1 |
| 101% | 799 nM |  |  |  | O=C(O)c1cc2c(cc1O)-c1[nH]c3c(F)ccc(C(F)(F)F)c3c1CC2 |
| 96% | 473 nM |  |  |  | O=C(O)c1cc2c(cc1O)-c1[nH]c3cc(C(F)(F)F)ccc3c1CC2 |
| 147% | 43 nM |  |  |  | CCCOc1cccc(-c2ccc3c4c([nH]c3c2)-c2cc(O)c(C(=O)O)cc2CC4)c1 |
| 141% |  |  |  |  | CCCCc1ccc(-c2ccc3c4c([nH]c3c2)-c2ccc(C(=O)O)cc2CC4)cc1 |
| 136% | 373 nM |  |  |  | O=C(O)c1cc2c(cc1O)-c1[nH]c3cc(-c4ccccc4)ccc3c1CC2 |
| 100% | 3400 nM |  |  |  | O=C(O)c1cc2ccc3c4ccccc4[nH]c3c2cc1O |
| 129% | 41 nM |  |  |  | CCCOc1ccc(-c2ccc3c4c([nH]c3c2)-c2cc(O)c(C(=O)O)cc2CC4)cc1 |
|  | > 30000 nM |  |  |  | O=C(O)c1cc2c(cc1O)-c1[nH]c3cc(C4CCCCC4)ccc3c1CC2 |
|  | > 30000 nM |  |  |  | Cn1c2ccccc2c2ccc3cc(C(=O)O)c(O)cc3c21 |
|  | > 30000 nM |  |  |  | N#Cc1ccc2[nH]c3c(c2c1)CCc1cc(C(=O)O)c(O)cc1-3 |
| 154% | 109 nM |  |  |  | Cc1ccc(-c2ccc3c4c([nH]c3c2)-c2cc(O)c(C(=O)O)cc2CC4)cc1 |
| 68% | 569 nM |  |  |  | O=C(O)c1cc2c(cc1O)-c1[nH]c3ccc(-c4ccccc4)cc3c1CC2 |
| 111% | 76 nM |  |  |  | CCCCc1ccc(-c2ccc3c4c([nH]c3c2)-c2ccc(C(N)=O)cc2CC4)cc1 |
| 115% | 333 nM |  |  |  | O=C(O)c1cc2c(cc1O)-c1[nH]c3ccc(C(F)(F)F)cc3c1CC2 |
| 70% | 9200 nM |  |  |  | Cc1ccc2c(c1)[nH]c1c3cc(O)c(CC(=O)O)cc3ccc21 |
| 126% | 35 nM |  |  |  | Cc1cc(-c2ccc3c4c([nH]c3c2)-c2cc(O)c(C(=O)O)cc2CC4)ccc1F |
